Assays:
[1] = Hepatocyte stability assay, human; format: in vitro ADME; conditions: cryopreserved hepatocytes, 10 μM compound, 0.5×10^6 cells/mL, 60 min, read-out: T½
Description: (§1) Defrosted cryo-preserved hepatocytes (viability>70%) may be used to determine the metabolic stability of a compound via calculation of intrinsic clearance (Clint; a measure of the removal of a compound from the liver in the absence of blood flow and cell binding). Clearance data are particularly important for in vitro work as they can be used in combination with in vivo data to predict the half-life and oral bioavailability of a drug.
(§2) The metabolic stability in hepatocytes assay involves a time-dependent reaction using both positive and negative controls. The cells were pre-incubated at 37° C. and spiked with test compound (and positive control); samples were taken at pre-determined time intervals and analysed to monitor the change in concentration of the initial drug compound over 60 minutes. A buffer incubation reaction (with no hepatocytes present) acted as a negative control and two cocktail solutions, containing compounds with known high and low clearance values (verapamil/7-hydroxycoumarin and propranolol/diltiazem), acted as positive controls. • 1. The assay was run with a cell concentration of 0.5×10^6 cells/mL in Leibovitz buffer. • 2. All compounds and controls were run in duplicate. • 3. Compound concentration was 10 μM. • 4. All compounds and controls were incubated with both cells and buffer to show turnover was due to hepatic metabolism. • 5. All wells on the incubation plate had 326.7 μL of either cells or buffer added. • 6. Prior to assay, cell and buffer-only incubation plates were preincubated for 10 mins at 37° C. • 7. The assay was initiated by adding compounds, 3.3 μL of 1 mM in 10% DMSO-90% Buffer; final DMSO concentration is 0.1%. • 8. Samples were taken at regular timepoints (0, 5, 10, 20, 40, 60 min) until 60 mins. • 9. Sample volume was 40 μL and was added to 160 μL of crash solvent (acetonitrile with internal standard) and stored on ice. • 10. At the end of the assay, the crash plates were centrifuged at 3500 rpm for 20 mins at 4° C. • 11. 80 μL of clear supernatant was removed and mixed with 80 μL of deionised water before being analysed by LC-MS/MS.
(§3) Raw LC-MS/MS data was exported to, and analysed in, Microsoft Excel for determination of intrinsic clearance. The percentage remaining of a compound was monitored using the peak area of the initial concentration as 100%. Intrinsic clearance and half-life values were calculated using a graph of the natural log of percentage remaining versus the time of reaction in minutes. Half-life (min) and intrinsic clearance (Clint in μL min^−1 10^−6 cells) values were calculated using the gradient of the graph (the elimination rate constant, k) and Equations 1 and 2.

hepatocytes [2] = assay: Hepatocyte stability assay, human; format: in vitro ADME; conditions: 10 μM compound, 0.5×10^6 cells/mL, 60 min
Description: as §1, §2, §3

[3] = tested on: IL-1β cytokine output from THP-1 cells; assay: THP-1 AlphaLISA IL-1β cytokine assay; format: cell-based; conditions: Homo sapiens, THP-1, differentiated THP-1 cells
Protocol: (§4) Measuring Inhibitory Effects on IL-1β and IL-6 Cytokine Output from THP-1s
(§5) The cytokine inhibition profiles of compounds of formula (I) were determined in a differentiated THP-1 cell assay. All assays were performed in RPMI-1640 growth medium (Gibco), supplemented with 10% fetal bovine serum (FBS; Gibco), 1% penicillin-streptomycin and 1% sodium pyruvate unless specified otherwise. The IL-1β and IL-6 cytokine inhibition assays were each run in a background of differentiated THP-1 cells as described below. All reagents described were from Sigma-Aldrich unless specified otherwise. Compounds were prepared as 10 mM DMSO stocks.
(§6) THP-1 cells were expanded as a suspension up to 80% confluence in appropriate growth medium. Cells were harvested, suspended, and treated with an appropriate concentration of phorbol 12-myristate 13-acetate (PMA) over a 72 hr period (37° C./5% CO2).
(§7) Following 72 hrs of THP-1 cell incubation, cellular medium was removed and replaced with fresh growth media containing 1% of FBS. Working concentrations of compounds were prepared separately in 10% FBS treated growth medium and pre-incubated with the cells for 30 minutes (37° C./5% CO2). Following the 30 minute compound pre-incubation, THP-1s were treated with an appropriate concentration of LPS and the THP-1s were subsequently incubated for a 24 hr period (37° C./5% CO2). An appropriate final concentration of Nigericin was then dispensed into the THP-1 plates and incubated for 1 hour (37° C./5% CO2) before THP-1 supernatants were harvested and collected in separate polypropylene 96-well holding plates.
(§8) Reagents from each of the […] and IL-6 commercial kits (Perkin Elmer) were prepared and run according to the manufacturer's instructions. Subsequently, fluorescence signal detection in a microplate reader was measured (EnVision® Multilabel Reader, Perkin Elmer).
(§9) Percentage inhibition was calculated per cytokine by normalising the sample data to the high and low controls used within each plate (+/−LPS respectively). Percentage inhibition was then plotted against compound concentration and the 50% inhibitory concentration (IC50) was determined from the resultant concentration-response curve.

[4] = tested on: NRF2 (nuclear factor erythroid 2-related factor 2); assay: NRF2 +/−GSH activation assay (DiscoverX PathHunter NRF2 translocation kit, U2OS cells); format: cell-based; conditions: Homo sapiens; for Emax: U2OS, normalised to dimethyl fumarate high control; for EC50: U2OS PathHunter cells, 6 hours
[5] = tested on: IL-6 cytokine output from THP-1 cells; assay: THP-1 AlphaLISA IL-6 cytokine assay; format: cell-based; conditions: Homo sapiens, THP-1, differentiated THP-1 cells
Protocol: as §4, §5, §6, §7, §8, §9

[6] = Hepatocyte stability assay, mouse; format: in vitro ADME; conditions: cryopreserved hepatocytes, 10 μM compound, 0.5×10^6 cells/mL, 60 min, read-out: T½
Description: as §1, §2, §3

hepatocytes [7] = assay: Hepatocyte stability assay, mouse; format: in vitro ADME; conditions: 10 μM compound, 0.5×10^6 cells/mL, 60 min
Description: as §1, §2, §3

[8] = LPS 24 hr then Nigericin 1 hour
[9] = +GSH, 30 minute compound-GSH pre-incubation

SMILES	half-life at 10 μM [1] [min]	CIint (hepatocytes [2]) [μL min^−1 10^−6 cells]	IC50 [3, 8] [µM]	Emax ([4]; +GSH) [%]	Emax ([4]; −GSH) [%]	EC50 [4, 9] [µM]	EC50 ([4]; −GSH) [µM]	IC50 [5, 8] [µM]	half-life at 10 μM [6] [min]	CIint (hepatocytes [7]) [μL min^−1 10^−6 cells]	IC50 ([3]; from repeated experiments) [µM]	IC50 ([5]; from repeated experiments) [µM]
C=C(CC(=O)OC1(c2c(Cl)cccc2Cl)CCC1)C(=O)OCC(=O)O [Example 8, 2-((4-(1-(2,6-dichlorophenyl)cyclobutoxy)-2-methylene-4-oxobutanoyl)oxy)acetic acid]	142	11	15.2	170	193	18.7	12.2	6	9	223	–	–
C=C(CC(=O)OC1(c2ccc(SC(F)(F)F)cc2)CCC1)C(=O)OCC(=O)O [Example 34, 2-((2-methylene-4-oxo-4-(1-(4-((trifluoromethyl)thio)phenyl)cyclobutoxy)butanoyl)oxy)acetic acid]	116	11	5.1	2.8	0	> 100	> 54.8	2.7	23	74	–	–
C=C(CC(=O)OC1(c2cc(Cl)ccc2Cl)CCC1)C(=O)OCC(=O)O [Example 5, 2-((4-(1-(2,5-dichlorophenyl)cyclobutoxy)-2-methylene-4-oxobutanoyl)oxy)acetic acid]	172	9	10.6	185	208	25.4	16	5.3	24	80	–	–
C=C(CC(=O)OC1(c2ccc(C(F)(F)F)cc2)CCC1)C(=O)OCC(=O)O [Example 2, 2-((2-methylene-4-oxo-4-(1-(4-(trifluoromethyl)phenyl)cyclobutoxy)butanoyl)oxy)acetic acid]	> 460	<3	7.7	167	217	21.6	15.4	5.2	38	50	9.1	7.7
C=C(CC(=O)OC1(c2cc(Cl)cc(Cl)c2)CCC1)C(=O)OCC(=O)O [Example 1, 2-((4-(1-(3,5-dichlorophenyl)cyclobutoxy)-2-methylene-4-oxobutanoyl)oxy)acetic acid]	116	13	9.4	259	375	11.1	7.7	4.6	24	52	–	–

— patent US20230399289A1, “ITACONIC ACID DERIVATIVES” (Sitryx Therapeutics Limited, priority 2020, published 2023)
